Reference: the NIST ThermoML archive (doi:10.1021/je060148j)

Conditions: Liquid, Closed cell (Static) method

COC [dimethyl ether]
Conditions	vapor or sublimation pressure [kPa]
219.15 K	22.3
221.13 K	25.2
223.11 K	28.3
224.88 K	31.5
226.88 K	35.4
228.85 K	39.5
230.86 K	43.9
232.86 K	48.7
234.85 K	54.1
236.85 K	59.8
239.14 K	66.3
241.14 K	73.2
244.14 K	84
247.13 K	96.1
249.13 K	104.9
251.14 K	114.3
255.13 K	135.1
257.12 K	146.6
259.14 K	159
261.13 K	171.8
263.13 K	185.6
265.13 K	199.8
267.13 K	215.5
269.13 K	231.8
271.13 K	248.9
273.13 K	266.8
275.04 K	285.1
277.02 K	305
279.02 K	326.4
281.02 K	348.8
283.02 K	372.3
285.01 K	397
287 K	422.8
288.99 K	449.8
290.99 K	478.4
293.08 K	508.9
295.07 K	540
297.07 K	573
299.08 K	606.9
301.11 K	643.1
303.08 K	680.2
305.07 K	718.4
307.07 K	758.8
309.06 K	800.7
311.07 K	844.2
313.06 K	889.5
315.06 K	936.6
317.04 K	985.3
319.03 K	1036
321.03 K	1088.7
323.02 K	1143.3
325.02 K	1200.6
327.13 K	1262.3
329.02 K	1319.9
331.11 K	1385.3
333.11 K	1450.6
335.11 K	1518.8
337.1 K	1588.4
339.1 K	1660.3
341.08 K	1733.3
343.09 K	1811.3
345.09 K	1891.2
347.08 K	1972.8
349.08 K	2057.4
351.07 K	2144.3
353.05 K	2232.7
355.05 K	2326
357.05 K	2421.9
359.05 K	2520.3
361.04 K	2621.5
